Key:
[1] = target: Voltage-dependent calcium channel subunit alpha-2/delta-1 (Homo sapiens, UniProt P54289); assay: Binding affinity for huamn alpha2-delta1 subunit of voltage gated calcium channel over-expressed in A710 cell membranes using [3H]-gabapentin
[2] = Half-life period was determined in rats at 10 mg/kg, p.o. dose; format: ADME, organism-based; design: dose 10 mg/kg, route oral; details: rat, in vivo, po
[3] = Half-life period was determined in rats at 20 mg/kg, i.p. dose; format: ADME, organism-based; design: dose 20 mg/kg, route intraperitoneal; details: rat, in vivo, ip
[4] = Half-life period was determined in rats at 2 mg/kg, i.v. dose; format: ADME, organism-based; design: dose 2 mg/kg, route intravenous; details: rat, in vivo, iv
[5] = Plasma clearance rate was determined in rats at 2 mg/kg, i.v. dose; format: ADME, organism-based; design: dose 2 mg/kg, route intravenous; details: rat, iv, read-out: Clp
Rattus norvegicus [6] = assay: Time required by compound for reaching maximum plasma concentration was determined in rats at 20 mg/kg, i.p. dose; format: ADME, organism-based; design: dose 20 mg/kg, route intraperitoneal; details: in vivo, ip
[7] = Volume of distribution at steady state was determined in rats at 2 mg/kg, i.v. dose; format: ADME, organism-based; design: dose 2 mg/kg, route intravenous; details: rat, in vivo, iv, read-out: Vdss
[8] = Plasma concentration was determined in rats at 10 mg/kg, p.o. dose; format: ADME, organism-based; design: dose 10 mg/kg, route oral; details: rat, po
[9] = Plasma concentration was determined in rats at 20 mg/kg, i.p. dose; format: ADME, organism-based; design: dose 20 mg/kg, route intraperitoneal; details: rat, ip
[10] = Plasma concentration was determined in rats at 2 mg/kg, i.v. dose; format: ADME, organism-based; design: dose 2 mg/kg, route intravenous; details: rat, iv
[11] = Maximum plasma concentration in rats at 10 mg/kg, p.o. dose; format: ADME, organism-based; design: dose 10 mg/kg, route oral; details: rat, po
[12] = Maximum plasma concentration in rats at 20mg/kg, i.p. dose; format: ADME, organism-based; design: dose 20 mg/kg, route intraperitoneal; details: rat, ip
[13] = Bioavailability was determined in rats at 10 mg/kg, p.o. dose; format: ADME, organism-based; details: rat, in vivo, po
Rattus norvegicus [14] = assay: Time required by compound for reaching maximum plasma concentration was determined in rats at 10 mg/kg, p.o. dose; format: ADME, organism-based; design: dose 10 mg/kg, route oral; details: in vivo, po

Voltage-dependent calcium channel subunit alpha-2/delta-1, sequence (P54289 25-956 limits assumed): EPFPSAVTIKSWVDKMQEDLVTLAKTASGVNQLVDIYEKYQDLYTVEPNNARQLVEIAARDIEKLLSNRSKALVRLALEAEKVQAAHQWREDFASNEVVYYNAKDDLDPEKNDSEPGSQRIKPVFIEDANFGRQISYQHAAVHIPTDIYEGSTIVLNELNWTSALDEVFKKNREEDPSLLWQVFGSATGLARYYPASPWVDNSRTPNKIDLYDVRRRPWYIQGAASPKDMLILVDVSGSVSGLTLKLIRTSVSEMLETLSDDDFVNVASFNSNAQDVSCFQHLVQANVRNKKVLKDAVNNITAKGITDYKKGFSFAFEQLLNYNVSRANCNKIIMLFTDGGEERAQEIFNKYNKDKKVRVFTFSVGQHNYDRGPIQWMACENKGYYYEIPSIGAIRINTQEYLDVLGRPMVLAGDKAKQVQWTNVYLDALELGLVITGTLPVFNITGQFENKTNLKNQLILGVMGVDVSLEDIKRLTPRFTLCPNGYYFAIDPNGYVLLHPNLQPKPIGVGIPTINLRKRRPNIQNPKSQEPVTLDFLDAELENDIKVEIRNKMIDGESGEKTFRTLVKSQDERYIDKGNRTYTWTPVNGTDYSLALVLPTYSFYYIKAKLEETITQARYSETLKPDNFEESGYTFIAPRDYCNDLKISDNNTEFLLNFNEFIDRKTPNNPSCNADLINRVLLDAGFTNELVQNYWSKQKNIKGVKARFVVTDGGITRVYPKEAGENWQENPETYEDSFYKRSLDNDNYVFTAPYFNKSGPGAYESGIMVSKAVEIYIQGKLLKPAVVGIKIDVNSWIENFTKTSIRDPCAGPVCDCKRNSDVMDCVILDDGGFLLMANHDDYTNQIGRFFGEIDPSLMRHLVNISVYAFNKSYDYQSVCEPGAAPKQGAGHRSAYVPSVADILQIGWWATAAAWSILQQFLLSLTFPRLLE
Voltage-dependent calcium channel subunit alpha-2/delta-1, sequence (P54289 957-1103 limits assumed): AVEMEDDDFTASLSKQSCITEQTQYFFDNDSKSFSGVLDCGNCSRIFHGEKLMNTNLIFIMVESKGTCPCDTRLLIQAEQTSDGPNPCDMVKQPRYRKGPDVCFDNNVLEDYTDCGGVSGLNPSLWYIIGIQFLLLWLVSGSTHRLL

Row | IC50 [1] [nM] | SMILES | other results
1 | 40 | CCOc1ccc(-n2c(C)c3c(C)nnc(NC)c3c2C)cc1 | 
2 | 235 | CCOc1ccc(-n2c(C)c3c(C)nnc(C4CCCCC4)c3c2C)cc1 | 
3 | 2180 | CCOc1ccc(-n2c(C)c3c(C)nnc(OC)c3c2C)cc1 | 
4 | 335 | CCOc1ccc(-n2c(C)c3c(C)nnc(-c4cccc(OC)c4)c3c2C)cc1 | 
5 | 107 | CCOc1ccc(-n2c(C)c3c(C)nnc(-c4ccc(CC)cc4)c3c2C)cc1 | 
6 | 440 | CCOc1ccc(-n2c(C)c3c(C)nnc(Nc4ccc(OC)cc4)c3c2C)cc1 | 
7 | 4370 | CCOc1ccc(-n2c(C)c3c(C)nnc(-c4ccccc4Cl)c3c2C)cc1 | 
8 | 1850 | CCOc1ccccc1-n1c(C)c2c(C)nnc(C)c2c1C | 
9 | 1600 | CCOc1ccc(-n2c(C)c3c(C)nnc(-c4cccc(Cl)c4)c3c2C)cc1 | 
10 | 171 | CCOc1ccc(-n2c(C)c3c(C)nnc(CC(C)C)c3c2C)cc1 | 
11 | 1260 | CCOc1ccc(-n2c(C)c3c(C)nnc(-c4ccc(-c5ccccc5)cc4)c3c2C)cc1 | 
12 | > 10000 | CCOc1ccc(-n2c(C)c3c(C)nnc(Nc4ccc(N)cc4)c3c2C)cc1 | 
13 | 153 | CCOc1ccc(-c2nnc(C)c3c(C)n(-c4ccc(OCC)cc4)c(C)c23)cc1 | 
14 | 1730 | CCOc1ccc(-n2c(C)c3c(C)nnc(-c4ccc(OC(F)(F)F)cc4)c3c2C)cc1 | 
15 | 185 | CCOc1ccc(-n2c(C)c3c(C)nnc(C4CCCC4)c3c2C)cc1 | 
16 | 737 | CCOc1ccc(-n2c(C)c3c(C)nnc(-c4ccccc4OC)c3c2C)cc1 | 
17 | 382 | CCOc1ccc(-n2c(C)c3c(C)nnc(-c4ccccc4)c3c2C)cc1 | 

Row | IC50 [1] [nM] | SMILES | other results
18 | > 10000 | COc1ccc(-n2c(C)c3c(C)nnc(C)c3c2C)cc1 | 
19 | 170 | CCOc1ccc(-n2c(C)c3c(C)nnc(N(C)C)c3c2C)cc1 | 
20 | 263 | CCOc1ccc(-n2c(C)c3c(C)nnc(CCC(C)C)c3c2C)cc1 | 
21 | 86 | CCOc1ccc(-n2c(C)c3c(C)nnc(-c4ccc(C)cc4)c3c2C)cc1 | 
22 | 148 | CCOc1ccc(-n2c(C)c3c(C)nnc(CCC4CCCC4)c3c2C)cc1 | 
23 | 75 | CCOc1ccc(-n2c(C)c3c(C)nnc(Nc4ccccc4)c3c2C)cc1 | 
24 | 240 | CCOc1ccc(-n2c(C)c3c(C)nnc(Nc4ccc(C)cc4)c3c2C)cc1 | 
25 | > 10000 | CCOc1ccc(-n2c(C)c3c(C)nnc(Nc4ccncc4)c3c2C)cc1 | 
26 | 597 | CCOc1ccc(-n2c(C)c3c(C)nnc(-c4ccc(OC)cc4OC)c3c2C)cc1 | 
27 | 577 | CCOc1ccc(-n2c(C)c3c(C)nnc(CC(C)CC(C)(C)C)c3c2C)cc1 (stereo not drawn) | 
28 | 180 | CCOc1ccc(-n2c(C)c3c(C)nnc(C)c3c2C)cc1 | half-life [2]: 4.5 h; half-life [3]: 1.2 h; half-life [4]: 0.91 h; clearance [5]: 18.5 mL/min/kg; T max (Rattus norvegicus [6]): 0.3 h; Vd [7]: 1.3 L/kg; AUC [8]: 27 µM·h; AUC [9]: 141 µM·h; AUC [10]: 6.4 µM·h; Cmax [11]: 3.6 µM; Cmax [12]: 101 µM; bioavailability [13]: 81%; T max (Rattus norvegicus [14]): 2.8 h
29 | 170 | CCOc1ccc(-n2c(C)c3c(C)nnc(C4CC4)c3c2C)cc1 | 
30 | > 10000 | CCOc1cccc(-n2c(C)c3c(C)nnc(C)c3c2C)c1 | 
31 | 250 | CCOc1ccc(-n2c(C)c3c(C)nnc(CC)c3c2C)cc1 | 
32 | 528 | CCOc1ccc(-n2c(C)c3c(C)nnc(-c4ccc(F)cc4)c3c2C)cc1 | 
33 | 701 | CCOc1ccc(-n2c(C)c3c(C)nnc(-c4ccc(Cl)cc4)c3c2C)cc1 | 
34 | 360 | CCCCCc1nnc(C)c2c(C)n(-c3ccc(OCC)cc3)c(C)c12 | 

Row | SMILES | IC50 [1] [nM] | other results
35 | CCOc1ccc(-n2c(C)c3c(C)nnc(CC4CCCC4)c3c2C)cc1 | 211 | 

Reference: ChEMBL document CHEMBL1137964, “Synthesis and biological evaluation of 6-aryl-6H-pyrrolo[3,4-d]pyridazine derivatives: high-affinity ligands to the alpha 2 delta subunit of voltage gated calcium channels” (Bioorg Med Chem Lett, 2004)
